Source: ChEMBL document CHEMBL5724564, “Patient-derived NASH model to assess the effects of chemical probes on hepatocyte regenerations” (2024)

System: Hepatocyte spheroids
Experiment: Cell viability is assessed by cellular ATP assay using CellTiter-Glo Luminescent kit. Viability is expressed as average RLU from biological replicates and normalized to negative control.Toxicity is defined as those with normalized ATP significantly less than 80 percent of the negative control.
Format: functional, Homo sapiens
Set-up: unit not given here
Conditions: not given

SMILES | Proliferation
CCCCNc1ncc(-c2ccc(CN3CCOCC3)cn2)c(N[C@H]2CC[C@H](O)CC2)n1 | 0.01481
Cc1c(NC(=O)c2cc(C(N)=O)nc3cc(F)ccc23)c(C(F)(F)F)nn1Cc1ccc(C#N)cc1 [BAY-876] | 0.01262
CC(=O)Nc1c(C(C)=O)c(=O)n(C)c2nc(-c3ccc(Cl)cc3Cl)c(-c3ccc(Cl)cc3)cc12 [NAPHTHYRIDINONE] | 0.005874
CN(Cc1cnc2nc(N)nc(N)c2n1)c1ccc(C(=O)N[C@@H](CCC(=O)O)C(=O)O)cc1 [METHOTREXATE] | 0.002627
CO[C@H]1CNC[C@@H](OCC2CCC(F)(F)CC2)[C@@H]1Nc1ncc(-c2cncc(C)c2)c2cc(C)c(=O)[nH]c12 | 0.02957
CCC(=O)N[C@H]1CC[C@@H](C(=O)N(C)c2ccc(-c3nc4ccccc4o3)cc2)C1 [BI 99179] | 0.7724
Cn1cc(-c2ccc3c(c2)CCN3C(=O)Cc2cccc(C(F)(F)F)c2)c2c(N)ncnc21 | 0.03291
O=C1c2ccc(Nc3ccc(F)cc3F)cc2CCc2ccc(OC[C@H](O)CO)cc21 [Skepinone-L] | 0.2651
O=C(N[C@@H]1CCOC1)C1CCN(c2nc3cc(Cl)c(Cl)cc3n2-c2ccc3ccccc3n2)CC1 | 0.003884
Cl.Cl.NC1(c2ccc(-c3nc4ccn5c(=O)[nH]nc5c4cc3-c3ccccc3)cc2)CCC1 | 0.5443
CCOc1cc(N2CCC(O)CC2)ccc1Nc1ncc2c(n1)N(C)c1ccccc1C(=O)N2C | 0.02286
CCCCN(CCCC)C(=O)CN1C[C@@H](c2cc(OC)c3c(c2)OCO3)[C@H](C(=O)O)[C@H]1CC(C)(C)CCC.Cl | 0.1508
CC(C)c1ccc(Nc2nccc(-c3cnn4ncccc34)n2)cc1 [GW805758X] | 0.2702
Cc1cc(Nc2nccc(C)n2)cc(-c2cnc([C@@]3(O)CC[C@H](C(=O)O)C(C)(C)C3)s2)c1 [MRL-SYKi] | 0
Nc1nc2[nH]cnc2c(=S)[nH]1 [THIOGUANINE] | 0.05104
O=C(c1ccc2[nH]ccc2c1)N1CCN(S(=O)(=O)c2ccc3[nH]c(=O)oc3c2)CC1 | 0.6071
CC(=O)Nc1cccc(-n2c(=O)n(C3CC3)c(=O)c3c(Nc4ccc(I)cc4F)n(C)c(=O)c(C)c32)c1 [TRAMETINIB] | 0
CN(C)[C@H]1CN(C2CCc3cccc(F)c32)C[C@@H]1c1ccc(N2CCN(S(C)(=O)=O)CC2)cc1 (some centres not stated) | 0
O=c1nc(-c2ccccn2)sc2ccccc12 [BTZO-1] | 0.08275
Cc1nnc2c3ccccc3c(N[C@@H](C)[C@H](c3ccccc3)N(C)C)nn12 | 0.0435

SMILES | Proliferation
CN(C)C(=O)/C(C#N)=C/c1ccc(-c2nc3cnc4[nH]ccc4c3n2C2CCCCC2)o1 | 0.07463
Cn1cnc2c1c(=O)n(CCCn1c(=O)c3c(ncn3C)n(C)c1=O)c(=O)n2C [BISDIONIN C] | 0.03665
Cn1c(=O)c(Oc2ccc(F)cc2F)cc2cnc(NC(CCO)CCO)nc21 [PAMAPIMOD] | 0.003154
CN(C)C(=O)Cn1cc(-c2nc([C@@](C)(c3ccc(-c4cnc(N)nc4)cc3)C3CC3)no2)cn1 [BI 665915] | 0.119
CCn1c(-c2nonc2N)nc2c(C#CC(C)(C)O)ncc(OCC3CCCNC3)c21 (configuration not stated) | 0.006402
CNC(=O)Nc1ccc2c(c1)CC[C@@]21OC(=O)N(CC(=O)N(Cc2ccc(F)cc2)[C@@H](C)C(F)(F)F)C1=O [A-485] | 0.02668
COc1ccccc1C(=O)Nc1cc2c(cc1N1CCCC1)n(C)c(=O)n2C | 0.003878
COc1cccc(CNC(=O)c2nc3scc(COCc4ccc(C(=O)O)cc4)c3c(=O)[nH]2)c1 [T-26c] | 0.5771
CSc1ccc(-c2cc3ncnc(SCC(=O)O)c3s2)cc1 | 0.882
Cc1cn(-c2cc(NC(=O)c3ccc4c(c3)CN(c3cncnc3)C[C@@H]4C)cc(C(F)(F)F)c2)cn1 | 0.4149
COc1ccccc1C(=O)Nc1cc2c(cc1N1CCNCC1C)n(C)c(=O)n2C (configuration not stated) | 0.1835
CN1C[C@H](Nc2cnn(C)c(=O)c2Br)C[C@H](c2ccccc2)C1 | 0.003884
CCCCN(CCCC)C(=O)CN1C[C@H](c2cc(OC)c3c(c2)OCO3)[C@@H](C(=O)O)[C@@H]1CC(C)(C)CCC.Cc1ccc(S(=O)(=O)O)cc1 | 0.6131
COc1cc(Nc2ccnc3ccc(Br)cc23)cc(OC)c1OC | 0.5391
CC(C)(C)S(=O)(=O)c1cc2c(Nc3ccc4scnc4c3)ncnc2cc1OCCO | 0.5541
NC(=O)c1ccc(N(C(N)=O)c2c(F)cccc2F)nc1-c1ccc(F)cc1F [VX-702] | 0.02591
CCN(CC)S(=O)(=O)Nc1cccc(-c2ccc3c(NC(=O)C4CC4)n[nH]c3c2)c1 | 0.0004
Cc1c(NC(=O)c2ccc(C(C)(C)C)cc2)cccc1-c1cn(C)c(=O)c(Nc2ccc(C(=O)N3CCOCC3)cc2)n1 | 0.2187
CC(=O)C1=C(C)N(c2cccc(C(F)(F)F)c2)C(=O)N[C@@H]1c1ccc(C#N)nc1 [BAY-678] | 0.03291
CC(=O)N1CCC(c2ccc(C(=O)NC(=N)N)cc2C(F)(F)F)CC1 [BI 9627] | 0.09817

SMILES | Proliferation
O=C(NOC[C@H](O)CO)c1ccc(F)c(F)c1Nc1ccc(I)cc1F [MIRDAMETINIB] | 0
O=C(Nc1ccc2[nH]nc(-c3ccncc3)c2c1)[C@@H]1CCN(CC(=O)N2CCN(c3ccc(-c4ncccn4)cc3)CC2)C1 | 0.03313
CCOCCn1cc(C(=O)Nc2ccc(-n3nc(-c4cccnc4)cc3C(F)(F)F)cn2)ccc1=O [BI 1935] | 0.3766
CC(=O)c1cc(-c2cc(C(=O)NC3CC3)ccc2C)c2ncccn12 | 0.01914
CNCCN1CCC(c2cc(CN(C)C(=O)c3cccc(Oc4ccccc4)c3)ccn2)CC1 | 0.03291
COc1ccccc1-c1cc(Nc2cccc(CS(N)(=O)=O)c2)ncn1 | 0.2719
C[C@@H]1CCN(C(=O)CC#N)C[C@@H]1N(C)c1ncnc2[nH]ccc12.O=C(O)CC(O)(CC(=O)O)C(=O)O [TOFACITINIB CITRATE] | 0.01527
CCNC(=O)c1cc2c(N3CCOCC3C)ccnc2[nH]1 (configuration not stated) | 0.05192
CS(=O)(=O)Nc1cc([N+](=O)[O-])ccc1OC1CCCCC1 | 0.6769
Cn1cnc2c(F)c(Nc3ccc(Br)cc3Cl)c(C(=O)NOCCO)cc21 [SELUMETINIB] | 0.04298
COc1cc2c(cc1OCCCN1CCCC1)N=C(N)C21CCC1 | 0.2543
Nc1ncnc2c1ccn2[C@@H]1O[C@H]([C@H](O)c2ccccc2)[C@@H](O)[C@H]1O | 0.1599
O=C(O)Cc1ccccc1Nc1c(Cl)cccc1Cl [DICLOFENAC] | 0.2575
O=S(=O)(NC1CCC(c2cc(F)ccc2F)(S(=O)(=O)c2ccc(Cl)cc2)CC1)C(F)(F)F (configuration not stated) [MRK-560] | 0.1212
CNC(=O)c1ccc(Nc2ncc(C(F)(F)F)c(NCc3nccnc3N(C)S(C)(=O)=O)n2)cc1 [DEFACTINIB] | 0.1091
O=C(N1CCS(=O)(=O)CC1)N1C[C@H](c2ccc(OC(F)(F)F)cc2)C[C@H](c2nc(C3CC3)no2)C1 [BAY-386] | 0.02871
COc1cc(-c2cn(C)c(=O)c3cnccc23)c(OC)cc1CN(C)C | 0.1518
CCOC(=O)c1c(/C(C#N)=C\N)c2ccc(Cl)c(Cl)c2n1C | 0.874
CNc1nc(-c2ccc3c(N)n[nH]c3c2)cc(N2C[C@@H](C(=O)NC3CCCCC3)CC[C@H]2C)n1 | 0.1604
Cn1cc(-c2ccc3nnc(Sc4ccc5ncccc5c4)n3n2)cn1 [SGX-523] | 0.3569

Same assay, conditions: Concentration range 1nM-1uM

SMILES | Proliferation
Cc1sc2c(c1C)C(c1ccc(Cl)cc1)=NC(CC(=O)OC(C)(C)C)c1nnc(C)n1-2 (configuration not stated) | 0.001662

Same assay, conditions: Concentration range 5nM-5uM

SMILES | Proliferation
CCCc1cc(C)[nH]c(=O)c1CNC(=O)c1cc(-c2ccnc(N3CCN(C)CC3)c2)cc2c1cnn2C(C)C | 0.009822
COc1cc2c(NC3CCN(C(C)C)CC3)nc(C3CCCCC3)nc2cc1OCCCN1CCCC1 | 0.05128
COc1cc2c(cc1NS(=O)(=O)c1ccc(Br)cc1C)n(C)c(=O)n2C | 0.003884
COc1cc2c(NC3CCN(C(C)C)CC3)nc(N3CCC(F)(F)CC3)nc2cc1OCCCN1CCCC1 | 0.008491
Cn1cc(CCn2cnc(-c3cnn(C)c3)c2-c2ccc(C#N)cc2)cn1 | 0.05329

Same assay, conditions: Concentration range 10nM-10uM

SMILES | Proliferation
O=C(/C=C/N1C[C@H]2C[C@@H]1CN2c1ccccn1)c1ccccc1O | 0.02966
Cc1cc(=O)n(C)c2cc(N3C(=O)CC[C@H](NS(=O)(=O)CC(C)C)[C@H]3c3ccc(Cl)cc3)ccc12 | 0.2341
O=C(NC[C@H](O)CN1CCc2ccccc2C1)c1ccnc(NC2CCC2)c1 | 0.0004
COc1cc(C#N)ccc1S(=O)(=O)Nc1ccc2c(c1)cc(C)c(=O)n2C | 0.0004
CC(C)N(CCCNC(=O)Nc1ccc(C(C)(C)C)cc1)C[C@H]1O[C@@H](n2cc(Br)c3c(N)ncnc32)[C@H](O)[C@@H]1O | 0.01234
CCn1cc(-c2cccc(C(F)(F)F)c2)c2sc(C(=N)NC3CCS(=O)(=O)CC3)cc2c1=O | 0.05754
Clc1cc2c(NC3CCCC3)nnc(-c3ccncc3)c2cc1Cl | 0.02485
CN1CCN(c2ccc(-c3cccc(CN4CCOCC4)c3)cc2NC(=O)c2c[nH]c(=O)cc2C(F)(F)F)CC1 | 0.001358
COc1ccccc1S(=O)(=O)Nc1ccc2c(c1)CN(C)C(=O)N2 | 0.003099
CC(C)Oc1ccc(-c2c[nH]cc2CN(C)CCN)cc1 | 0.2793
Cl.O=C([C@@H](Cc1cccc(C(F)(F)F)c1)NS(=O)(=O)c1cc(F)c2c(c1)CCNC2)N1CCCC1 | 0.01564
Cc1cc2nc(N3CCC(C(=O)NC4CCCC4)CC3)n(C(C)C)c2cc1C | 0.1009
COc1cc(C(=O)N2CC[C@@H](O)[C@@H](N)C2)cc2nc(-c3cc4ccccc4n3CC3CC3)n(C)c12.Cl | 0.09717
CNCCN1CCC(OCc2ccccc2)CC1 | 0.406
O=C(NCC(=O)N1CCCC1)Nc1ccc2cnccc2c1 | 0.06734
Cc1cn(CCN2CCN(c3ccccc3-c3cc(C#N)cc(C(=O)NCCCN4CCCC4)c3)CC2)c2ccccc12 | 0.05285
